Measurements: US20180071188A1, “COMPOSITION FOR THE PERMANENT DEFORMATION OF HAIR HAVING REDUCED ODOUR” (The Procter & Gamble Company, priority 2016, published 2018)

Columns and labels:
[1] = density of malodor suppressant; format: physicochemical; settings: 23° C., 1.013 bar
Protocol: All densities relate to a temperature of 23° C. and a pressure of 1.013 bar. Density measurements are typically performed via determining the weight and the volume of the compound to be measured, or according to any other processes known to the skilled person.

[2] = distribution coefficient log P (octanol/water); format: physicochemical; settings: raw material of malodor suppressant system
Description: In the fields of organic and medicinal chemistry, a distribution (P) coefficient is the ratio of concentrations of a compound in the two phases of a mixture of two immiscible solvents at equilibrium. […] One of the solvents chosen is water while the second is octanol. […] The partition coefficient is the ratio of concentrations of un-ionized compound between the two solutions. The logarithm of the ratio of the concentrations of the un-ionized solute in the solvents is called log P:
The log P (octanol/water) is referred hereinafter as “log P”, unless otherwise specified.

[3] = Test Procedure 2: panel test rating thiol malodor of permanent shaping premix mixed with malodor suppressant system; settings: scale 0 to 5 (0=no thiol smell, 5=harsh thiol smell); 5 panelists; premix + 0.7 wt.-% suppressant system; same rating immediately and 25 min after mixing
Protocol: A […] performed with 5 panelists with trained expertise in the classification of thiol malodour. The panelists received a mixture of the permanent shaping premix and 0.7 wt.-% of one malodor suppressant system, as described above (stirred by a single operator for all tests). Immediately and 25 min after mixing, the panelists were asked to rate the thiol malodor according to a scale of 0 to 5 (0=no thiol smell, 5=harsh thiol smell), the mixture being passed from panelist to panelist with an additional stirring for each of the panelists. The same odor rating is obtained immediately after mixing and 25 min after mixing.

Compound | density [1] | log P (octanol/water) [2] | Odor (thiol malodor rating) [3] | logP ([2]; octanol/water) | logP [2]
CC1COC(C)(c2ccc3c(c2)C(C)(C)CCC3(C)C)O1 (centres unmarked) [S5, Okoumal] | 0.971 g/mL | 5.79 | 3 |  | 
CCCCCCCCCCCCCC(=O)OC(C)C [S1, isopropylmyristate] | 0.864 g/mL |  | 3 | 7.41 | 
CC1COCc2cc3c(cc21)C(C)(C)C(C)C3(C)C (centres unmarked) [S3, Galaxolide] | 0.946 g/mL |  | 1-2 |  | 5.93
O=C1CCCCCCCCC/C=C/CCCO1 [S2, Habanolide] | 0.901 g/mL | 4.77 | 4 |  | 
O=C(OCc1ccccc1)c1ccccc1 [S6, Benzyl benzoate] | 1.129 g/mL |  | 3 |  | 
Operanide [S4] | 1.01 g/mL | 4.90 | 2 |  | 
